From article PMC5773535, “Plasmodium dihydrofolate reductase is a second enzyme target for the antimalarial action of triclosan” (Scientific Reports, 2018)

Assays:
[1] = target: T1, human dihydrofolate reductase (HsDHFR) (Homo sapiens, UniProt P00374); assay: spectrophotometric DHFR assay at […] nm (NADPH/DHF consumption), purified enzyme; assay type: biochemical
T1 construct: gene DHFR
T1 sequence (P00374 1-187): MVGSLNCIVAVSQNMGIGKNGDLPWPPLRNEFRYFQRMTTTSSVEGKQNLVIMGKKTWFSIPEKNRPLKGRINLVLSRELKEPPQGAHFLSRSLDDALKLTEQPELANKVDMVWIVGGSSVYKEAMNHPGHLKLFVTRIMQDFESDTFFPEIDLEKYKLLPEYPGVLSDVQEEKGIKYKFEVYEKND

[2] = target: P. vivax dihydrofolate reductase (PvDHFR) (Plasmodium vivax, UniProt O02604); assay: as above; assay type: biochemical
P. vivax dihydrofolate reductase (PvDHFR), sequence (O02604 1-240): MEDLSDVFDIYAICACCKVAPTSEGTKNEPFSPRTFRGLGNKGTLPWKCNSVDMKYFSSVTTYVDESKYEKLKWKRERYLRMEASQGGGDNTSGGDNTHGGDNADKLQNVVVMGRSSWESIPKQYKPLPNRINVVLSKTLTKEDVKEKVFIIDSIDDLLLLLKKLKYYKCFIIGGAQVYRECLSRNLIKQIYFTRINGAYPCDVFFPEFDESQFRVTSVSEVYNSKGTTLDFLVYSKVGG

## Oc1cc(Cl)ccc1Oc1ccc(Cl)cc1Cl [triclosan]
[1]
  IC50: 17.2 ± 4.9 µM
[2]
  IC50: 0.775 ± 0.384 µM
